Measurements taken from patent publication US12416052B2, “Capturing, concentrating, and detecting microbes in a sample using magnetic ionic liquids and recombinase polymerase amplification” (priority 2019, dated 2025).

Legend:
S. bongori = assay: MIL-based whole-cell extraction; set-up: species or system Salmonella bongori; conditions: 1×10^6 CFU mL^−1 in TSB, 15 μL MIL
Description: (§1) A universal schematic for MIL-based cell extraction is depicted in FIG. 7B. A 1 mL volume of diluted cell suspension was added to a flat-bottomed 4-mL screw cap glass vial. Fifteen microliters of either the Ni(II) or Dy(III) MIL was added and dispersed into microdroplets by vortex agitation for 30 s. The aqueous phase was decanted following dispersive extraction, and the MIL was subjected to a brief wash step using 1 mL of nuclease-free water (Integrated DNA Technologies, Coralville, IA, USA) to ensure adequate removal of loosely or incidentally bound cells. […]
(§2) Following back-extraction, aliquots of the cell-enriched back-extraction medium were serially diluted in 0.1% peptone water and a 10 μL aliquot of each dilution was applied to a separate lane on square plates containing an appropriate agar medium. […] Colonies were counted and colony forming units (CFU) were determined. The enrichment factor (EF) for MIL-based extraction was calculated using Equation 1, where CMIL represents the concentration of bacteria in suspension following extraction using the MIL and CS is the initial concentration of bacteria in the sample.
In order to explore the broader utility of our approach, evaluation of additional cell types is needed. […] We later determined that VRBGA was a suitable common medium for this purpose and used this in our statistical analysis. […]

[1] = system: P. carotovorum pv. carotovorum; assay: MIL-based whole-cell extraction; set-up: species or system Pectobacterium carotovorum; conditions: EF determined using Columbia Agar
Description: as §1, §2

C. sakazakii 01088P = assay: MIL-based whole-cell extraction; set-up: species or system Cronobacter sakazakii; conditions: EF determined using Tryptic Soy Agar
Description: as §1, §2

E. coli O157:H7 = assay type: cell-based, Escherichia coli; conditions: no significant differences (p-value=0.4491)
Description: (§3) The following statistical analysis was performed in SAS 9.4. Four master suspensions of bacteria were prepared for four Salmonella enterica serovars: subsp. typhimurium, subsp. arizonae, subsp. diarizonae and subsp. houtenae. Two master suspensions were made for the remaining three Salmonella serovars or species: S. enterica subsp. indica, subsp. salamae and S. bongori. For E. coli O157:H7, two master suspensions of bacteria were prepared for each of the eight strains studied. For all bacteria tested, two replicate extractions from the same master suspension were performed, using the 10-3 dilution. Following MIL-based capture, back-extraction solutions were plated to non-selective agar (TSA) and selective agar (BSA) for Salmonella and SMAC for E. coli. To identify whether significant differences existed for the capture of Salmonella and E. coli O157:H7, we applied a linear mixed model for the response variable (enrichment factor) with log transformation in order to reduce skewness. […]
(§4) In order to explore the broader utility of our approach, evaluation of additional cell types is needed. […] We later determined that VRBGA was a suitable common medium for this purpose and used this in our statistical analysis. […] Enrichment factors were calculated for Salmonella on both non-selective (TSA) and selective agars (BSA) and for E. coli O157:H7 on non-selective agar (TSA). […]

Salmonella serovars = assay type: cell-based
Description: as §3, §4

SMILES: CCCCCCCCCCCCCC[P+](CCCCCC)(CCCCCC)CCCCCC.O=C([CH-]C(=O)C(F)(F)F)C(F)(F)F.O=C([CH-]C(=O)C(F)(F)F)C(F)(F)F.O=C([CH-]C(=O)C(F)(F)F)C(F)(F)F.[Ni+2] [Ni(II) MIL, [P66614^+][Ni(hfacac)3^−]]
- Enrichment Factor (BSA) (S. bongori): 4
- Enrichment Factor (TSA) (S. bongori): 4
- Enrichment Factor [1]: 24
- Enrichment Factor (C. sakazakii 01088P): 12
- MIL-conferred injury: recovery on TSA vs VRBGA (E. coli O157:H7): no injury could be detected
- MIL-conferred injury: recovery on TSA or BSA (Salmonella serovars; no statistically significant differences (p-value=0.7248)): no detectable injury
- recovery on VRBGA compared with TSA (Salmonella serovars; p-value=0.0004): significantly lower
